We go through six compounds from patent publication US20210022342A1, “THE USE OF SAFENERS TO IMPROVE RESISTANCE OF RICE CROP TO HERBICIDES” (Adama Agan Ltd., priority 2018, published 2021).

Common to all, as to format: in vivo
Assay [1] relates to ALS resistant rice variety (A205V and G654E substitution). Briefly: Imazamox dose response with or without isoxadifen, regrowth, ALS resistant rice. As for the experimental part:
(§1) Seed of an ALS resistant rice variety (rice plant with the A205V and G654E substitution (ATCC accession numbers PTA-123859, PTA-123860 and/or PTA-123861) is planted in a commercial greenhouse soil mix in 10×10×10 cm plastic pots. 250 mL of soil is put into each pot, then the seed is placed on top of the soil and the seed is covered with 100-150 mL of soil. Approximately 8-10 seeds are planted per pot. The pots are then watered with 100 mL of a mixture of Miracle Grow and Fertiplus (iron supplement). The pots are placed in the greenhouse (38° C./20° C. day/night, 14 h photoperiod with supplemental light). The average light intensity in the greenhouse is 150 μM/m^2/sec.
(§2) Plants are grown until 10 days after planting and then the pots are transferred to trays and the plants are grown under water. Plants are treated when they reach the 3-5 leaf stage.
(§3) Generally, plants are treated through a moving nozzle spray system in a spray volume of 200 l/ha or 187 l/ha. Isoxadifen is tank mixed with the herbicide in the spray bottle at a rate of 100 g/ha.
(§4) Four days after treatment, the tops of the plants are cut off to approximately 3 cm from the top of the soil. The plants are allowed to regrow for 7 days at which time the amount of regrowth is measured by cutting any growth above 3 cm above the top of soil and weighing the tissue that regrew.
Efficacy tests were conducted to determine the effect of imazamox on rice plant with the A205V and G654E substitutions (ATCC accession numbers PTA-123859, PTA-123860 and/or PTA-123861) in the presence of safener (isoxadifen).
(§5) The imazamox (in rates of 0, 2.2, 6.6, 19.7, 54.9 and 177.3 g/ha) was applied on wild type rice and herbicide resistance rice in the presence or absence of safener (isoxadifen at 100 g/ha).
(§6) The improvement in regrowth was calculated by subtracting the regrowth from a) wild type rice and wild type rice with isoxadifen; b) herbicide resistant rice; and c) herbicide resistant rice and isoxadifen.
(§7) Calculations were done for each application rate of imazamox. The efficacy of safener alone and mutation alone on decreasing herbicide effect/increasing herbicide resistance were calculated. The relative fresh weight re-growth is the percentage of activity (for Colby).
(§8) The re-growth data was implemented in curve and the synergistic effect was calculated. The observed efficacy is higher than calculated efficacy.

Assay [2] relates to wild type rice (Non-Traited Rice). Briefly: Imazamox dose response with or without isoxadifen, regrowth, wild type rice. The settings on record: for Calculated effect of Safener (relative fresh weight re-growth): difference with and without isoxadifen on Non-Traited Rice. As for the experimental part: as §1, §2, §3, §4, §5, §6, §7, §8
Assay [3] concerns mutant rice (ML0831265-01493, ATCC deposit PTA-12933, mutation G2096S). Briefly: Tank mixes of safeners with propaquizafop or quizalofop: regrowth of mutant rice. As for the experimental part: (§9) Seeds of a proprietary ACCase resistant rice variety, i.e. RTA1, was used. RTA1, ML0831265-01493 (ATCC deposit PTA-12933, mutation G2096S) variety rice seeds were supplied by RiceTec. RTA1 rice cultivar contains a single mutation in the ACCase gene that confer ACCase resistance. The mutation makes the enzyme insensitive to quizalofop.
(§10) Mutant rice seeds were planted in commercial greenhouse soil mix in 10×10×10 cm plastic pots. 250 mL of soil was put into each pot, then the seeds were placed on top of the soil and the seeds were covered with 100-150 mL of soil. Approximately 8-10 seeds were planted per pot. The pots were then watered with 100 mL of a mixture of Miracle Grow and Fertiplus (iron supplement). The pots were placed in the greenhouse (38° C./20° C. day/night, 14 h photoperiod with supplemental light). The average light intensity in the greenhouse was 150 μM/m^2/sec.
Plants were grown until 10 days after planting and then the pots were transferred to trays and the plants were grown under water. :Plants were treated when they reached the 3-5 leaf stage.
Safeners were tank mixed with the herbicide in the spray bottle.
(§11) Four days after treatment, the tops of the plants were cut off so that approximately 2.5 cm of plant from the top of the soil remain. The plants were allowed to regrow for 3 days at which time the amount of regrowth was weighed by measuring the amount of fresh weight of tissue that regrew. Comparing the weight of regrowth of shoots after cutting indicates the level of phytotoxicity the herbicide had on the mutant rice plant and the increased level of resistance of the mutant rice to the herbicide when the herbicide was applied in combination with the safener.
The safeners were applied in various w/w ratios with the ACCase inhibiting herbicides to the rice plant.

Assay [4] deals with ACCase inhibitor resistant rice seeds (ML0831265-01493 (ATCC deposit PTA-12933, mutation G2096S)). Briefly: Safener seed treatment with propaquizafop or quizalofop: regrowth of resistant rice. As for the experimental part:
as §9, §10
Plants were grown until 10 days after planting and then the pots were transferred to trays and the plants were grown under water. :Plants were treated when they reached the 3-5 leaf stage. […]
as §11
The safeners were also applied in various w/w ratios of the ACCase inhibiting herbicides to the rice seeds.

Where [5] appears, read: tank mix with propaquizafop 50 g/ha, safener 12.5 g/ha.
Setting [6] is: tank mix with propaquizafop 50 g/ha, safener 25 g/ha.
The mark [7] stands for this setting: tank mix with propaquizafop 50 g/ha, safener 50 g/ha.
Where [8] appears, read: tank mix with propaquizafop 50 g/ha, safener 100 g/ha.
Setting [9] is: tank mix with quizalofop 40 g/ha, safener 12.5 g/ha.
Where [10] appears, read: tank mix with quizalofop 40 g/ha, safener 25 g/ha.
[11] abbreviates: tank mix with quizalofop 40 g/ha, safener 50 g/ha.
Where [12] appears, read: tank mix with quizalofop 40 g/ha, safener 100 g/ha.
Setting [13] is: propaquizafop, safener seed treatment 0.5 g/kg of seed.
[14] abbreviates: propaquizafop, safener seed treatment 1 g/kg of seed.
Setting [15] is: propaquizafop, safener seed treatment 2 g/kg of seed.
Setting [16] is: quizalofop, safener seed treatment 0.5 g/kg of seed.
[17] abbreviates: quizalofop, safener seed treatment 1 g/kg of seed.
Setting [18] is: quizalofop, safener seed treatment 2 g/kg of seed.

For `COCc1cnc(C2=NC(C)(C(C)C)C(=O)N2)c(C(=O)O)c1` (racemic) [Imazamox, 2-[(RS)-4-isopropyl-4-methyl-5-oxo-2-imidazolin-2-yl]-5-methoxymethylnicotinic acid], the “Relative fresh weight re-growth after treatment” value in assay [1] (Mutant & Safener (isoxadifen 100 g/ha), imazamox 2.2 g/ha) stood at 1.17; in assay [1] (Mutant & Safener (isoxadifen 100 g/ha), imazamox 6.6 g/ha) it was 1.33; in assay [1] (Mutant & Safener (isoxadifen 100 g/ha), imazamox 19.7 g/ha), 1.14; in assay [1] (Mutant & Safener (isoxadifen 100 g/ha), imazamox 54.9 g/ha) it was 0.53; in assay [1] (Mutant & Safener (isoxadifen 100 g/ha), imazamox 177.3 g/ha), 0.13; in assay [1] (Mutant, no safener, imazamox 2.2 g/ha) it was 0.93. Besides, the “Relative fresh weight re-growth after treatment” value in assay [1] (Mutant, no safener, imazamox 6.6 g/ha) is 0.99; in assay [1] (Mutant, no safener, imazamox 19.7 g/ha), 0.68; in assay [1] (Mutant, no safener, imazamox 54.9 g/ha), 0.42; in assay [1] (Mutant, no safener, imazamox 177.3 g/ha) it was 0.15; in assay [2] (Non-Traited Rice, imazamox 2.2 g/ha), 0.36; in assay [2] (Non-Traited Rice, imazamox 6.6 g/ha), 0.16. The “Relative fresh weight re-growth after treatment” value in assay [2] (Non-Traited Rice, imazamox 19.7 g/ha) worked out at 0.14; in assay [2] (Non-Traited Rice, imazamox 54.9 g/ha) it was 0.11; in assay [2] (Non-Traited Rice, imazamox 177.3 g/ha), 0.09; in assay [2] (Safener & Non-Traited Rice (isoxadifen 100 g/ha), imazamox 2.2 g/ha), 0.47; in assay [2] (Safener & Non-Traited Rice (isoxadifen 100 g/ha), imazamox 6.6 g/ha), 0.17; in assay [2] (Safener & Non-Traited Rice (isoxadifen 100 g/ha), imazamox 19.7 g/ha) it was 0.06. Besides, the “Relative fresh weight re-growth after treatment” value came out at 0.05 in assay [2] (Safener & Non-Traited Rice (isoxadifen 100 g/ha), imazamox 54.9 g/ha) and 0.05 in assay [2] (Safener & Non-Traited Rice (isoxadifen 100 g/ha), imazamox 177.3 g/ha). Also, the “Calculated efficacy base on Colby (%)” value in assay [1] (expected for mutant & safener, imazamox 42 g/ha) is 50%. Besides, the “additive effect of safener and mutant on ED50” value in assay [1] (expected, 4+85) is recorded as 89 folds. Besides, in assay [1] (herbicide resistant rice with safener vs the wildtype), the “observed increase in ED50” value stood at 120 folds. Also, in assay [1] (mutant & safener, imazamox 42 g/ha), the “Observed efficacy (%)” value is listed as 77%. Further, the “Efficacy at ED50 of mutant- 42 g/ha (%)” value in assay [1] (mutant alone, imazamox 42 g/ha) was 50%; in assay [2] (calculated effect of safener alone, imazamox 42 g/ha), 0%. For the same compound, the “increase in tolerance to herbicide (ED50) by the mutation” value in assay [1] (mutant rice vs wildtype rice, no safener) is 85 fold. The “Calculated effect of Safener (relative fresh weight re-growth)” value in assay [2] (imazamox 2.2 g/ha) is 0.12; in assay [2] (imazamox 6.6 g/ha) it was 0.02; in assay [2] (imazamox 19.7 g/ha) it was −0.08; in assay [2] (imazamox 54.9 g/ha), −0.06; in assay [2] (imazamox 177.3 g/ha), −0.04. For the same compound, in assay [2] (wildtype rice with safener vs without), the “increase of resistance (ED50) by the safener” value came to 4 folds.

`O=C(C(Cl)Cl)N1CCOC12CCCCC2` [AD-67]: the “Regrowth (fresh weight mg)” value was 68 mg in assay [3] (setting [5]); 222 mg in assay [3] (setting [6]); 288 mg in assay [3] (setting [7]); 512 mg in assay [3] (setting [8]); 202 mg in assay [3] (setting [9]); 292 mg in assay [3] (setting [10]). The “Regrowth (fresh weight mg)” value in assay [3] (setting [11]) is given as 348 mg; in assay [3] (setting [12]), 505 mg; in assay [4] (setting [13]) it was 173 mg; in assay [4] (setting [14]), 113 mg; in assay [4] (setting [15]) it was 170 mg; in assay [4] (setting [16]), 233 mg. The “Regrowth (fresh weight mg)” value in assay [4] (setting [17]) was 285 mg; in assay [4] (setting [18]) it was 298 mg.

Regarding `CC1COc2ccccc2N1C(=O)C(Cl)Cl` (centres unmarked) [Benzacor, benoxacor], the “Regrowth (fresh weight mg)” value in assay [4] (setting [13]) came to 37 mg; in assay [4] (setting [14]), 107 mg; in assay [4] (setting [15]), 98 mg; in assay [4] (setting [16]) it was 90 mg; in assay [4] (setting [17]), 72 mg; in assay [4] (setting [18]), 78 mg.

On to `O=C(O)COc1ccc(Cl)c2cccnc12` [Cloquinoce, cloquintocet], for which the “Regrowth (fresh weight mg)” value in assay [3] (setting [5]) is on record as 42 mg; in assay [3] (setting [6]), 90 mg; in assay [3] (setting [7]), 158 mg; in assay [3] (setting [8]), 355 mg; in assay [3] (setting [9]) it was 172 mg; in assay [3] (setting [10]), 132 mg. Also, the “Regrowth (fresh weight mg)” value stood at 252 mg in assay [3] (setting [11]); 398 mg in assay [3] (setting [12]); 275 mg in assay [4] (setting [13]); 342 mg in assay [4] (setting [14]); 358 mg in assay [4] (setting [15]); 143 mg in assay [4] (setting [16]). Moreover, the “Regrowth (fresh weight mg)” value in assay [4] (setting [17]) turned out to be 145 mg; in assay [4] (setting [18]), 273 mg.

On to `Clc1cc(Cl)nc(-c2ccccc2)n1` [Fenclorim, fenclorim], for which the “Regrowth (fresh weight mg)” value in assay [3] (setting [5]) stood at 15 mg; in assay [3] (setting [6]), 13 mg; in assay [3] (setting [7]), 15 mg; in assay [3] (setting [8]), 15 mg; in assay [3] (setting [9]), 42 mg; in assay [3] (setting [10]), 52 mg. Further, the “Regrowth (fresh weight mg)” value stood at 67 mg in assay [3] (setting [11]); 55 mg in assay [3] (setting [12]); 137 mg in assay [4] (setting [13]); 195 mg in assay [4] (setting [14]); 283 mg in assay [4] (setting [15]); 163 mg in assay [4] (setting [16]). In addition, the “Regrowth (fresh weight mg)” value in assay [4] (setting [17]) is listed as 167 mg; in assay [4] (setting [18]), 180 mg.

Consider `CC(C)=NOCCOC(=O)[C@@H](C)Oc1ccc(Oc2cnc3cc(Cl)ccc3n2)cc1` [Propaquizafop, (R)-2-[[(1-methylethylidene)amino]oxy]ethyl 2-[4-[(6-chloro-2-quinoxalinyl)oxy]phenoxy]propanoate], for which the “Regrowth (fresh weight mg)” value was 25 mg in assay [3] (propaquizafop 50 g/ha, no safener) and 55 mg in assay [4] (propaquizafop, seeds without safener).
